Laboratory results taken from US20080075750A1, “METHODS FOR PRODUCING THREE-DIMENSIONAL TISSUE-ENGINEERED CARDIAC CONSTRUCTS AND USES REGARDING SAME” (The Nemours Foundation, priority 2001, published 2008).

What was measured:
[1] = tested on: Primary NNRCCs (neonatal rat cardiac cells), 2D culture dishes and 3D constructs; test: Spontaneous contractile (beat) frequency of cardiac cell cultures before and after exposure to adrenergic/cholinergic agents; assay type: cell-based; conditions: for Propranolol responders: responding cultures of all cultures; for Postproprandolol beat frequency: three minutes after pharmacological dose, responders, 37° C.; for decrease in beat frequency post propranolol: versus baseline of responders
Experimental: Primary NNRCCs in SFHM form spontaneously and rhythmically contracting cultures within the first twenty hours after plating in monolayer cultures. To directly assess contractility and the modulation of contractile activity by […], the effects of propranolol, which is a beta-blocker on the frequency of spontaneous contraction in 2D and 3D preparation were evaluated. 3D cardiac cell cultures were prepared in transparent Teflon® culture bags that were slowly rotated to quiescently suspend the cells and HFN-coated polystyrene beads. Cultures were observed on a 37° C. microscope stage and the spontaneous contractile frequency of the constructs was determined. Samples were then exposed to a pharmacological dose of propranolol without disturbing the field of view on the microscope stage. Three minutes later, the contractile frequency was reassessed.
As expected, both culture types were spontaneously contractile. In standard (2D) preparations entire culture wells beat in unison. In the 3D constructs, entire aggregates of cells in physical contact beat in unison. […]

[2] = tested on: bioreactor cultured neonatal rat cardiac cells on microcarriers (BMP 2 function); test: Formation of tissue-like aggregates in bioreactor cardiac cultures with Noggin (BMP antagonist) in the media; assay type: cell-based
Experimental: 2 day old neonatal rat pups were halothane anesthetized and cardioectomitized. The isolated hearts were minced and subjected to about 16 hour digestion by about […] trypsin, followed by about […] collagenase II digestion and cell straining to completely separate individual cells. The cells were then counted on hemocytometer with trypan blue staining aid resuspended in modified serum-free cardiac media (SM3+) at a density of about 1×10^6 total cells/ml. Cells were then mixed with fibronectin-coated Nunclon plastic microcarriers at […] and infused into PTFE bags for bioreactor rotation, with the remainder plated onto fibronectin-coated six-well Nunclon plastic plates at a density of about 2×10^6 cells/well as a control population. Feeding was performed at about 24 hours post-inoculation to remove unattached cells, and about every 3 days thereafter. Samples were collected prior to culture start (Day 0) and at varying intervals thereafter. For the Noggin treatment protocol, about. 0.4 μg/ml Noggin (Pepro Tech, London, UK) in about 10 mM acetic acid was added to media just prior to inoculation and to media used for feeding, with control using untreated media.
Moreover, Noggin was used to assess the role of BMP2 in the formation of tissue-like aggregates in bioreactors. Noggin is a secreted factor which acts as an antagonist for members of the BMP family of proteins (i.e., in solution, Noggin will bind BMP 2 and prevent BMP 2 from binding to its receptor). Thus, adding an effective amount of Noggin to the culture media may suppress BMP 2 function. […] The control bioreactor cardiac cultures formed large tissue-like aggregates surrounding multiple microcarriers complete with substantial thick structure formation visible between the microcarriers.

Molecule: CN1[C@@H]2CC[C@H]1C[C@@H](OC(=O)C(CO)c1ccccc1)C2 (some centres unmarked) [atropine]
- alteration of baseline contractile frequency ([1]; cholinergic antagonist): did not result in an alteration of baseline contractile frequency

Molecule: CC(C)NCC(O)COc1cccc2ccccc12 (centres unmarked) [Propranolol, propranolol]
- Propranolol responders ([1]; 2D/culture dishes): (19 of 25)
- Postproprandolol beat frequency ([1]; 2D/culture dishes): 130.86 (±10.23)
- decrease in beat frequency post propranolol ([1]; 2D/culture dishes): 30% decrease
- Propranolol responders ([1]; 3D/HARVs): (6 of 12)
- Postproprandolol beat frequency ([1]; 3D/HARVs): 34.59 (±3.842)
- decrease in beat frequency post propranolol ([1]; 3D/HARVs): 34% decrease
- effect on beat frequency ([1]; both 3D and 2D conformations): decrease in beat frequency in a subset of cultures

B1: Noggin: secreted factor which acts as an antagonist for members of the BMP family of proteins (Pepro Tech) (protein, UniProt Q13253 28-232, looked up)
Noggin: QHYLHIRPAPSDNLPLVDLIEHPDPIFDPKEKDLNETLLRSLLGGHYDPGFMATSPPEDRPGGGGGAAGGAEDLAELDQLLRQRPSGAMPSEIKGLEFSEGLAQGKKQRLSKKLRRKLQMWLWSQTFCPVLYAWNDLGSRFWPRYVKVGSCFSKRSCSVPEGMVCKPSKSVHLTVLRWRCQRRGGQRCGWIPIQYPIISECKCSC
- aggregate size (connected microcarrier supports) ([2]; Noggin treated bioreactor culture, 6 days post inoculation): 2-3 microcarrier supports
- contractile activity / myocyte interaction ([2]; Noggin-treated cultures, about 8 hour post-inoculation): no disruption in myocyte interaction or contractile apparatus reformation
- tissue-like aggregate formation ([2]; about 0.4 μg/ml Noggin in media, bioreactor culture): only small thin aggregates
